Measurements: patent US20260265279A1, “RHO-ASSOCIATED PROTEIN KINASE INHIBITOR AND PREPARATION AND USE THEREOF” (Shanghai Zhimeng Biopharma, Inc, priority 2022, published 2026)

Tests used:
ROCK1 = target: T1, ROCK1 (Homo sapiens, UniProt Q13464); experiment: Kinase IC50 assay, HTRF kinEASE STK S2 kit, ROCK1; format: biochemical; settings: ATP 1.5 μM, 2.5 ng/well enzyme, 120 min
T1 construct: purchased Invitrogen PV3691
Description: (§1) Kinase IC50 assay was performed using the kinase assay kit HTRF kinEASE STK S2 kit (Cat #62ST2PEC, Cisbio). Kinases ROCK1 (Cat #PV3691) and ROCK2 (Cat #PV3759) were purchased from Invitrogen.
(§2) The working solution required for the assay was prepared with the appropriate reagents as described in the kinase assay kit instructions:
(§3) 1 mL of 1× Kinase Buffer contains 200 μL 5× Enzyme buffer, 5 μL 1M MgCl2 (Cat.M8266, Sigma), 1 μL 1M DTT (Cat.D5545, Sigma), 794 μL ddH2O.
(§4) The specific concentrations of STK-biotin substrate and ATP are shown in Table A. STK-biotin substrate and ATP were diluted with 1× kinase buffer to 2.5 times of the reaction concentration.
(§5) Concentrations of ROCK1/ROCK2 are shown in Table A. 5×ROCK1/ROCK2 Kinase working solution was prepared with 1× Kinase Buffer.
(§6) See Table A for the concentrations of Streptavidin-XL665 and STK Antibody-Cryptate in the reaction. 2× Streptavidin-XL665 and STK Antibody-Cryptate Working Solutions were prepared 5 minutes prior to the end of the kinase reaction using Detection Buffer from the kit.
(§7) A 100 μM compound mother solution was prepared using 1× kinase buffer containing 2.5% DMSO, and the mother solution was diluted 4-fold stepwise with the above DMSO-containing kinase buffer to obtain nine different concentrations of the compound solutions to be tested. In addition to the test compound wells, positive control wells (containing all reagents except the compounds) and negative control wells (containing all reagents except the compounds and kinase) were set up. 4 μL of the test compound solution was added to all reaction wells except the control wells and 4 μL of 2.5% DMSO solution was added to the control wells. Then 4 μL of previously prepared substrate and ATP working solution were added to all wells and mix well. Then, 2 μL/well of 5×ROCK1/ROCK2 kinase working solution (containing 2.5 ng ROCK1/ROCK2 kinase) was added to all reaction wells except negative control wells, and the negative control wells were made up to volume with 2 μL of 1× kinase buffer. Mix well, seal with plastic film and incubate at room temperature for 2 hours. Start preparing the assay solution 5 minutes before the end of the kinase reaction. After the end of the kinase reaction, 10 μL of prepared Streptavidin-XL665 and STK Antibody-Cryptate working solution were added to all reaction wells, the plates were sealed and mixed well, and then incubated at room temperature for 1 hour. Finally, the fluorescence signal was detected by SpectraMax i3x Multi-Mode Reader (Molecular Devices) (excitation wavelength is 320 nm, emission wavelength is 665 nm and 615 nm).
(§8) The inhibition rate in each well was calculated from the fluorescence intensity values of each well:
(§9) ER Emission Ratio, Emission light ratio=fluorescence intensity at 665 nm/fluorescence intensity at 615 nm;
(§10) ERcompound, ER of test compound wells; ERvehicle, ER of solvent (positive) control wells, ERblank, ER of blank (negative) control wells.
(§11) The graphs were plotted using the software GraphPad Prism 6.0, while the half inhibitory concentration (IC50) of each compound to be tested was obtained by fitting with Prism 6.0.

ROCK2 = target: T2, ROCK2 (Homo sapiens, UniProt O75116); experiment: Kinase IC50 assay, HTRF kinEASE STK S2 kit, ROCK2; format: biochemical; settings: ATP 1 μM, 2.5 ng/well enzyme, 120 min
T2 construct: purchased Invitrogen PV3759
T2 sequence (O75116 5-554 limits assumed): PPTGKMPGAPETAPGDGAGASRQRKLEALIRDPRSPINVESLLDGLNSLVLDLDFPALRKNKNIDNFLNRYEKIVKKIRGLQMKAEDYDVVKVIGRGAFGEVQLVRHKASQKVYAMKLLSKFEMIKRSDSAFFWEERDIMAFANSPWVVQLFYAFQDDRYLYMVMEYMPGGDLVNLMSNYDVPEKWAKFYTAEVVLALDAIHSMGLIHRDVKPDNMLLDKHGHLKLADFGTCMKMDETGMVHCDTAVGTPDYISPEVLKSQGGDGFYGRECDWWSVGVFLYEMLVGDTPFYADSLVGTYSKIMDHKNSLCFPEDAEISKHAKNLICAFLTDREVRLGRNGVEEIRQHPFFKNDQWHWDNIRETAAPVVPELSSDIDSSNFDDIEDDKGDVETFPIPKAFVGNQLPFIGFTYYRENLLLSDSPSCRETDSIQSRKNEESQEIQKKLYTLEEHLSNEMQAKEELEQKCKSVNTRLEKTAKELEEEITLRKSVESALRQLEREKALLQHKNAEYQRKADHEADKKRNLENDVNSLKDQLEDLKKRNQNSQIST
Description: as §1, §2, §3, §4, §5, §6, §7, §8, §9, §10, §11

T1 sequence (Q13464 1-535 limits assumed): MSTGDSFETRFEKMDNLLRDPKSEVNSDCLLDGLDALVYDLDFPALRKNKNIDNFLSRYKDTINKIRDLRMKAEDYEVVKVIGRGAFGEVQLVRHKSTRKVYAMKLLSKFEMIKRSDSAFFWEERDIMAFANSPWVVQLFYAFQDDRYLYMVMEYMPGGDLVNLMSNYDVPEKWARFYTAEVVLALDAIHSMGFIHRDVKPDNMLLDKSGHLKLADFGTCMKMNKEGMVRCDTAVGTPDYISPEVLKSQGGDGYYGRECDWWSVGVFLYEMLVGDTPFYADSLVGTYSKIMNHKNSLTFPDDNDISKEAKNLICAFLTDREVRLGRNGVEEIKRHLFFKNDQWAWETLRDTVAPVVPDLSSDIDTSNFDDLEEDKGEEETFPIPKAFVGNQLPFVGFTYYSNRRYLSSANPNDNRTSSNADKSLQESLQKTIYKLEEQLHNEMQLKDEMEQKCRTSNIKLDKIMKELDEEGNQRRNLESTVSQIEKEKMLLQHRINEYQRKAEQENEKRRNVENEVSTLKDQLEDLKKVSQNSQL

| SMILES | IC50 (ROCK1) | IC50 (ROCK2) |
| --- | --- | --- |
| COC1CN(C(=O)c2cc(C)c(C#Cc3ncc(F)c(Nc4cc(F)c(-c5cn[nH]c5)cc4F)n3)n2C)C1 [Compound A57] | > 100 µM | 0.0324 µM |
| Cn1c(C#Cc2ncnc(Nc3ccc(-c4cn[nH]c4)cc3)n2)ccc1C(=O)N1CC(F)(F)C1 [Compound A9] | > 100 µM | 0.702 µM |
| O=C(c1cccc(C#Cc2ncc(F)c(Nc3cc(F)c(-c4cn[nH]c4)cc3F)n2)n1)N1CC(F)(F)C1 [Compound A46] | > 100 µM | 0.161 µM |
| Cc1cc(C(=O)N2CC(F)(F)C2)n(C)c1C#Cc1ncc(F)c(Nc2cc(F)c(-c3cn[nH]c3)cc2F)n1 [Compound A49] | 37.4 µM | 0.0177 µM |
| Cn1c(C#Cc2nc3c(c(Nc4ccc(-c5cn[nH]c5)cc4)n2)COC3)ccc1C(=O)N1CC(F)(F)C1 [Compound A10] | > 100 µM | 0.0778 µM |
| Cc1cc(C(=O)N2CC(F)(F)C2)n(C)c1C#Cc1ncc(F)c(Nc2cc(F)c(-c3cn[nH]c3)c(F)c2)n1 [Compound A40] | > 100 µM | 0.0172 µM |
| O=C(c1ccc(C#Cc2nccc(Nc3ccc(-c4cn[nH]c4)cc3)n2)nc1)N1CC(F)(F)C1 [Compound A21] | > 100 µM | 0.754 µM |
| Cc1cc(C(=O)N2CC(F)(F)C2)n(C)c1C#Cc1nc2c(c(Nc3cc(F)c(-c4cn[nH]c4)c(F)c3)n1)COC2 [Compound A50] | 0.073 µM | 0.0089 µM |
| Cc1cc(Nc2ccc(-c3cn[nH]c3)cc2)nc(C#Cc2ccc(C(=O)N3CC(F)(F)C3)n2C)n1 [Compound A5] | > 100 µM | 0.091 µM |
| Cc1cc(C(=O)N2CC(O)C2)n(C)c1C#Cc1ncc(F)c(Nc2cc(F)c(-c3cn[nH]c3)cc2F)n1 [Compound A56] | > 100 µM | 0.0193 µM |
| O=C(c1cccc(C#Cc2nccc(Nc3ccc(-c4cn[nH]c4)cc3)n2)n1)N1CC(F)(F)C1 [Compound A20] | > 100 µM | 0.206 µM |
| O=C1c2ccc(C#Cc3ncc(F)c(Nc4ccc(-c5cn[nH]c5)cc4)n3)n2CCN1CC(F)(F)F [Compound A38] | > 100 µM | 0.445 µM |
| Cc1cc(C(=O)N2CC(F)(F)C2)n(C)c1C#Cc1ncc(F)c(Nc2cnc(-c3cn[nH]c3C)cc2F)n1 [Compound A48] | 18.4 µM | 0.0377 µM |
| Cn1nc(C#Cc2nccc(Nc3ccc(-c4cn[nH]c4)cc3)n2)cc1C(=O)N1CC(F)(F)C1 [Compound A17] | 50.3 µM | 1.06 µM |
| O=C(c1ccc(C#Cc2nccc(Nc3ccc(-c4cn[nH]c4)cc3)n2)cc1)N1CC(F)(F)C1 [Compound A28] | > 100 µM | 1.1 µM |
| Cc1nc(C#Cc2ccc(C(=O)N3CC(F)(F)C3)n2C)nc(Nc2ccc(-c3cn[nH]c3)cc2)c1C [Compound A6] | 35.2 µM | 0.202 µM |
| Cc1c(Nc2ccnc(C#Cc3ccc(C(=O)N4CC(F)(F)C4)n3C)n2)ccc2[nH]ncc12 [Compound A22] | 40.9 µM | 3.59 µM |
| Cn1c(C#Cc2ncc(F)c(Nc3ccc4c(=O)[nH]ccc4c3)n2)ccc1C(=O)N1CC(F)(F)C1 [Compound A27] | > 100 µM | 0.274 µM |
| Cc1n[nH]c(C)c1-c1ccc(Nc2ccnc(C#Cc3ccc(C(=O)N4CC(F)(F)C4)n3C)n2)cc1 [Compound A14] | > 100 µM | 0.585 µM |
| Cc1cnc(C#Cc2ccc(C(=O)N3CC(F)(F)C3)n2C)nc1Nc1ccc(-c2cn[nH]c2)cc1 [Compound A4] | 80 µM | 0.186 µM |
| Cc1cc(C(=O)N2CC(F)(F)C2)n(C)c1C#Cc1ncc(F)c(Nc2ccc(-c3cn[nH]c3C)cc2)n1 [Compound A44] | > 100 µM | 0.0127 µM |

| SMILES | IC50 (ROCK1) | IC50 (ROCK2) |
| --- | --- | --- |
| Cn1c(C#Cc2ncc(C#N)c(Nc3ccc(-c4cn[nH]c4)cc3)n2)ccc1C(=O)N1CC(F)(F)C1 [Compound A8] | > 100 µM | 3.49 µM |
| CN1Cc2nc(C#Cc3ccc(C(=O)N4CC(F)(F)C4)n3C)nc(Nc3ccc(-c4cn[nH]c4)cc3)c2C1 [Compound A11] | > 100 µM | 0.0867 µM |
| O=C(c1ccc(C#Cc2nccc(Nc3ccc(-c4cn[nH]c4)cc3)n2)s1)N1CC(F)(F)C1 [Compound A19] | > 100 µM | 50.5 µM |
| Cn1c(C#Cc2ncc(F)c(Nc3ccc(-c4c[nH]nc4F)cc3)n2)ccc1C(=O)N1CC(F)(F)C1 [Compound A15] | > 100 µM | 0.421 µM |
| Cc1cc(C(=O)N2CC(F)(F)C2)n(C)c1C#Cc1ncc(F)c(Nc2cnc(-c3cn[nH]c3)c(F)c2)n1 [Compound A41] | > 100 µM | 0.0724 µM |
| Cc1[nH]ncc1-c1ccc(Nc2nc(C#Cc3ccc(C(=O)N4CC(F)(F)C4)n3C)ncc2F)cc1 [Compound A16] | 29.6 µM | 0.0349 µM |
| CCn1c(C#Cc2nccc(Nc3ccc(-c4cn[nH]c4)cc3)n2)ccc1C(=O)N1CC(F)(F)C1 [Compound A32] | 30.7 µM | 0.232 µM |
| Cn1c(C(=O)N2CC(F)(F)C2)cc(C2CC2)c1C#Cc1ncc(F)c(Nc2cc(F)c(-c3cn[nH]c3)cc2F)n1 [Compound A54] | 64 µM | 0.0192 µM |
| Cc1cc(C(=O)N2CC(F)(F)C2)n(C)c1C#Cc1ncc(F)c(Nc2ccc(-c3cn[nH]c3)c(F)c2)n1 [Compound A42] | 4.93 µM | 0.005 µM |
| O=C(c1cccc(C#Cc2nccc(Nc3ccc(-c4cn[nH]c4)cc3)n2)c1)N1CC(F)(F)C1 [Compound A29] | 57.1 µM | 2 µM |
| Cc1cc(C(=O)N2CC(F)(F)C2)n(C)c1C#Cc1nc(C)c(F)c(Nc2ccc(-c3cn[nH]c3)c(F)c2)n1 [Compound A45] | 8.8 µM | 0.0352 µM |
| Cn1cc(C#Cc2nccc(Nc3ccc(-c4cn[nH]c4)cc3)n2)cc1C(=O)N1CC(F)(F)C1 [Compound A18] | 53.8 µM | 2.35 µM |
| Cc1cc(C(=O)N2CC(F)(F)C2)n(C)c1C#Cc1ncc(F)c(Nc2ccc(-c3cn[nH]c3C)cc2F)n1 [Compound A51] | > 100 µM | 0.131 µM |
| Cn1c(C#Cc2ncc(F)c(Nc3ccc(-c4cn[nH]c4)cc3)n2)ccc1C(=O)N1CC(F)(F)C1 [Compound A7] | > 100 µM | 0.0544 µM |
| Cn1c(C#Cc2nc(Nc3ccc(-c4cn[nH]c4)cc3)c3ccccc3n2)ccc1C(=O)N1CC(F)(F)C1 [Compound A37] | > 100 µM | 0.42 µM |
| Cc1cc(C(=O)N2CC(F)(F)C2)n(C)c1C#Cc1ncc(F)c(Nc2cc(F)c(-c3cn[nH]c3C)c(F)c2)n1 [Compound A43] | 20.6 µM | 0.0515 µM |
| O=C(c1ccc(C#Cc2nccc(Nc3ccc(-c4cn[nH]c4)cc3)n2)n1C1CC1)N1CC(F)(F)C1 [Compound A30] | 41.9 µM | 0.118 µM |
| Cc1cc(C(=O)N2CC(F)(F)C2)n(C)c1C#Cc1ncc(F)c(Nc2cc(F)c(-c3cn[nH]c3C)cc2F)n1 [Compound A47] | > 100 µM | 0.476 µM |
| Cn1c(C#Cc2nccc(Nc3ccc4[nH]ncc4c3)n2)ccc1C(=O)N1CC(F)(F)C1 [Compound A2] | 3.9 µM | 0.303 µM |
| CC(C)c1cc(C(=O)N2CC(F)(F)C2)n(C)c1C#Cc1ncc(F)c(Nc2cc(F)c(-c3cn[nH]c3)cc2F)n1 [Compound A55] | > 100 µM | 0.0573 µM |
| Cc1cc(Nc2ccnc(C#Cc3ccc(C(=O)N4CC(F)(F)C4)n3C)n2)ccc1-c1cn[nH]c1 [Compound A12] | 32.3 µM | 0.199 µM |
